{"source": "patent US9896447B2", "about": "“TrkA kinase inhibitors, compositions and methods thereof” (MERCK SHARP & DOHME CORP., priority 2013, dated 2018)", "data": [{"target": "TrkA receptor (Homo sapiens (Human), UniProt P04629)", "sequence (P04629 33-796)": "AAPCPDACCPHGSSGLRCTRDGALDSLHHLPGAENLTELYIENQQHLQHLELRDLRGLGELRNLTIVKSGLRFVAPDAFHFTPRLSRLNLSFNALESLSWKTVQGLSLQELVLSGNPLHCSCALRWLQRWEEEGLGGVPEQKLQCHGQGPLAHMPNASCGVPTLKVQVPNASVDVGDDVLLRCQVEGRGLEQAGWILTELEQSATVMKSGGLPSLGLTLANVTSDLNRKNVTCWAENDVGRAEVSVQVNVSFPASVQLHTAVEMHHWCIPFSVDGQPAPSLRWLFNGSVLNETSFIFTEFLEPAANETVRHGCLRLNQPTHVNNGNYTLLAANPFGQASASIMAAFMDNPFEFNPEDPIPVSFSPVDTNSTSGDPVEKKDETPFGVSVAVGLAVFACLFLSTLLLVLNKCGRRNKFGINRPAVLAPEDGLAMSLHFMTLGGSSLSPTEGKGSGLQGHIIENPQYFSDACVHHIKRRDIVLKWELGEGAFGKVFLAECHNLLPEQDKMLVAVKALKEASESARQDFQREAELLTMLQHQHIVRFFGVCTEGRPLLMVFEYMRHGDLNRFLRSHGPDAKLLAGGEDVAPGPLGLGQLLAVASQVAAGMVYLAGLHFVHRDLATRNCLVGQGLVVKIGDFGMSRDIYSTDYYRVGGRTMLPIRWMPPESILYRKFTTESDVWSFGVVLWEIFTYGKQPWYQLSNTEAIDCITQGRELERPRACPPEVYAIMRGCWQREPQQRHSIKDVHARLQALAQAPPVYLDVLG", "assay": "DiscoverX PathHunter TrkA functional assay (U2OS cells, NGF stimulated)", "assay_type": "cell-based", "details": "U2OS cells expressing TrkA-Prolink and Shc1-EA; compound 1 hour, then EC80 of NGF for 3 hours; luminescence", "description": "TrkA functional activity was measured using a DiscoverX PathHunter assay. In this assay, U2OS cells are express TrkA receptor as a fusion with the weakly complementing fragment of B-galactosidase, which DiscoverX calls “Prolink (PK)”; additionally, Shc1 is fused with a larger fragment, which is called “Enzyme Acceptor (EA)”. Activation of the TrkA receptor, upon NGF addition, results in the kinase domain being phosphorylated, resulting in subsequent recruitment of Shc1-EA protein. That recruitment results in an active B-galactosidase enzyme that is detected by addition of a chemiluminescent substrate.\nAll reagents were purchased from DiscoverX, except for the receptor agonists (NGF, BDNF, NT3) which were purchased from Peprotech. Cells were expanded and frozen into cryovials (TrkA p75 @ passage 13, 1.5×10^7 cells/vial; TrkC p75 @ passage 11, 1.5×10^7 cells/vial in InVitrogen Recovery Cell Freezing media), and stored in the vapor phase of liquid nitrogen, and thawed immediately before use. Thawed cells were added to a 384-well plate (BD Falcon 384-well white/clear, TC surface 120 uL assay plates (353963), 20 uL of 0.375e6 cells/mL=>7500 cells/well), and allowed to incubate overnight. Compound (10 mM starting dose: 202.5 nL compound yielding 0.81% DMSO final in total assay volume and starting doses 81 uM) was added the following morning and allowed to incubate on cells for 1 hour. Then, 5 uL EC80 of agonist (NGF for TrkA; BDNF for TrkB; NT3 for TrkC) was added and allowed to incubate for 3 hours at room temperature. DiscoverX PathHunter detection reagent is added (12 uL to plate and components diluted in parts as per kit instructions) and the plate is further incubated for 1 hour in the dark. The plate is read via luminescence on the Perkin Elmer Envision.", "units": {"IC50": "µM"}, "values": [{"smiles": "O=C(Nc1ccc(C(F)(F)F)cc1Cl)Nc1c(-c2ccccc2)nc2ccccn12", "note": "[Compound 22, 1-[2-chloro-4-(trifluoromethyl)phenyl]-3-(2-phenylimidazo[1,2-a]pyridin-3-yl)urea]", "IC50": 4.2}, {"smiles": "O=C(Nc1ccc(C(F)(F)F)cc1)Nc1c(-c2ccccc2)nc2ccccn12", "note": "[Compound 23, 1-(2-phenylimidazo[1,2-a]pyridin-3-yl)-3-[4-(trifluoromethyl)phenyl]urea]", "IC50": 4.3}, {"smiles": "O=C(Nc1cccnc1-c1ccccc1)Nc1c(-c2ccccc2)nc2ccccn12", "note": "[Compound 24, 1-(2-phenylimidazo[1,2-a]pyridin-3-yl)-3-(2-phenylpyridin-3-yl)urea]", "IC50": 0.45}, {"smiles": "Cc1cc(NC(=O)Nc2c(-c3ccccc3)nc3ccccn23)n(-c2ccccc2)n1", "note": "[Compound 25, 1-(3-methyl-1-phenyl-1H-pyrazol-5-yl)-3-(2-phenylimidazo[1,2-a]pyridin-3-yl)urea]", "IC50": 0.52}, {"smiles": "Cc1nc(-c2ccccc2)c(NC(=O)Nc2c(-c3ccccc3)nc3ccccn23)s1", "note": "[Compound 26, 1-(2-methyl-4-phenyl-1,3-thiazol-5-yl)-3-(2-phenylimidazo[1,2-a]pyridin-3-yl)urea]", "IC50": 0.048}, {"smiles": "Cn1ccnc1-c1cccc(NC(=O)Nc2c(-c3ccccc3)nc3ccccn23)c1", "note": "[Compound 27, 1-[3-(1-methyl-1H-imidazol-2-yl)phenyl]-3-(2-phenylimidazo[1,2-a]pyridin-3-yl)urea]", "IC50": 1.6}, {"smiles": "CCOC(=O)c1nc2ccccn2c1NC(=O)Nc1c(-c2ccccc2)nc2ccccn12", "note": "[Compound 28, ethyl 3-{[(2-phenylimidazo[1,2-a]pyridin-3-yl)carbamoyl]amino} imidazo[1,2-a]pyridine-2-carboxylate]", "IC50": 0.46}, {"smiles": "O=C(Nc1c(-c2ccccc2)nc2ccccn12)Nc1c(-n2cccn2)nc2ccccn12", "note": "[Compound 29, 1-(2-phenylimidazo[1,2-a]pyridin-3-yl)-3-[2-(1H-pyrazol-1-yl)imidazo[1,2-a]pyridin-3-yl]urea]", "IC50": 1.4}, {"smiles": "O=C(Nc1c(-c2ccccc2)nc2ccccn12)Nc1c(-c2ccccc2)nc2ncccn12", "note": "[Compound 30, 1-(2-phenylimidazo[1,2-a]pyridin-3-yl)-3-(2-phenylimidazo[1,2-a]pyrimidin-3-yl)urea]", "IC50": 1.5}, {"smiles": "O=C(Nc1c(-c2ccccc2)nc2ccccn12)Nc1c(-c2ccccc2)nc2ccc(Cl)nn12", "note": "[Compound 31, 1-(6-chloro-2-phenylimidazo[1,2-b]pyridazin-3-yl)-3-(2-phenylimidazo[1,2-a]pyridin-3-yl)urea]", "IC50": 1}, {"smiles": "CNC(=O)c1nc2ccccn2c1NC(=O)Nc1c(-c2ccccc2)nc2ccccn12", "note": "[Compound 32, N-methyl-3-{[(2-phenylimidazo[1,2-a]pyridin-3-yl)carbamoyl]amino}imidazo[1,2-a]pyridine-2-carboxamide]", "IC50": 1}, {"smiles": "Cc1nc(-c2ccccc2)c(NC(=O)Nc2c(-c3ccccc3)ncn2C)s1", "note": "[Compound 33, 1-(1-methyl-4-phenyl-1H-imidazol-5-yl)-3-(2-methyl-4-phenyl-1,3-thiazol-5-yl)urea]", "IC50": 4}, {"smiles": "Cc1nc(-c2ccccc2)c(NC(=O)Nc2c(-c3ccccc3)nc(C)n2C)s1", "note": "[Compound 34, 1-(1,2-dimethyl-4-phenyl-1H-imidazol-5-yl)-3-(2-methyl-4-phenyl-1,3-thiazol-5-yl)urea]", "IC50": 4.1}, {"smiles": "Cc1nc(-c2ccccc2)c(NC(=O)Nc2sc(C)nc2-c2ccccc2)s1", "note": "[Compound 35, 1,3-bis(2-methyl-4-phenyl-1,3-thiazol-5-yl)urea]", "IC50": 0.61}, {"smiles": "Cc1ncc(NC(=O)Nc2sc(C)nc2-c2ccccc2)c(-c2ccccc2)n1", "note": "[Compound 36, 1-(2-methyl-4-phenylpyrimidin-5-yl)-3-(2-methyl-4-phenyl-1,3-thiazol-5-yl)urea]", "IC50": 2.3}, {"smiles": "Cc1nc(-c2ccccc2)c(NC(=O)Nc2cccnc2-c2ccccc2)s1", "note": "[Compound 37, 1-(2-methyl-4-phenyl-1,3-thiazol-5-yl)-3-(2-phenylpyridin-3-yl)urea]", "IC50": 1.8}, {"smiles": "O=C(NCc1cc(F)ccc1C(F)(F)F)Nc1ccnn1-c1ccccc1", "note": "[Compound 38, 1-[5-fluoro-2-(trifluoromethyl)benzyl]-3-(1-phenyl-1H-pyrazol-5-yl)urea]", "IC50": 1.1}, {"smiles": "O=C(NCc1ccc(F)cc1C(F)(F)F)Nc1ccnn1-c1ccccc1", "note": "[Compound 39, 1-[4-fluoro-2-(trifluoromethyl)benzyl]-3-(1-phenyl-1H-pyrazol-5-yl)urea]", "IC50": 1.4}, {"smiles": "Cc1ncc(NC(=O)NCc2ccccc2SC(F)(F)F)c(-c2ccccc2)n1", "note": "[Compound 40, 1-(2-methyl-4-phenylpyrimidin-5-yl)-3-{2-[(trifluoromethyl)sulfanyl]benzyl}urea]", "IC50": 0.68}, {"smiles": "Cc1ncc(NC(=O)N[C@@H](C)C2CCCCC2)c(-c2ccccc2)n1", "note": "[Compound 41, 1-[(1S)-1-cyclohexylethyl]-3-(2-methyl-4-phenylpyrimidin-5-yl)urea]", "IC50": 2.1}, {"smiles": "Cn1ncc(NC(=O)NCc2ccccc2C(F)(F)F)c1-c1ccccc1", "note": "[Compound 42, 1-(1-methyl-5-phenyl-1H-pyrazol-4-yl)-3-[2-(trifluoromethyl)benzyl]urea]", "IC50": 1.4}, {"smiles": "Cc1ncc(NC(=O)NCc2cc(F)ccc2C(F)(F)F)c(-c2ccccc2)n1", "note": "[Compound 43, 1-[5-fluoro-2-(trifluoromethyl)benzyl]-3-(2-methyl-4-phenylpyrimidin-5-yl)urea]", "IC50": 1.4}, {"smiles": "O=C(NCc1ccccc1SC(F)(F)F)Nc1ccnn1-c1ccccc1", "note": "[Compound 44, 1-(1-phenyl-1H-pyrazol-5-yl)-3-{2-[(trifluoromethyl)sulfanyl]benzyl}urea]", "IC50": 0.42}, {"smiles": "Cc1onc(-c2ccccc2)c1NC(=O)NCc1ccccc1SC(F)(F)F", "note": "[Compound 45, 1-(5-methyl-3-phenylisoxazol-4-yl)-3-{2-[(trifluoromethyl)sulfanyl]benzyl}urea]", "IC50": 0.42}, {"smiles": "Cn1ncc(NC(=O)NCc2ccccc2OC(F)(F)F)c1-c1ccccc1", "note": "[Compound 46, 1-(1-methyl-5-phenyl-1H-pyrazol-4-yl)-3-[2-(trifluoromethoxy)benzyl]urea]", "IC50": 1.6}]}]}
